Results reported in the supplement of paper PMC10307832.

Columns and labels:
Assay in all cases: relative viability (nuclei count vs DMSO), 5 days (fraction); higher = more cells survive
Carfilzomib + Lapatinib = compound: CC(C)C[C@H](NC(=O)[C@H](CCc1ccccc1)NC(=O)CN1CCOCC1)C(=O)N[C@@H](Cc1ccccc1)C(=O)N[C@@H](CC(C)C)C(=O)[C@@]1(C)CO1 [Carfilzomib] + CS(=O)(=O)CCNCc1ccc(-c2ccc3ncnc(Nc4ccc(OCc5cccc(F)c5)c(Cl)c4)c3c2)o1 [Lapatinib] (partner 2 µM)
Outline: (§1)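 Lung cancer cell lines were seeded in 1536-well plates and dosed by pin tool the next day, with either a single drug or a fixed anchor-drug dose combined with five library-drug doses (not always all listed) spaced in √10 steps. Five days later, one step fixed the cells and stained their nuclei (final 0.05% Triton X-100, 1% formaldehyde, 1 ug/ml Hoechst), and nuclei were counted on 4× images. Relative viability is the nuclei count in treated wells divided by the count in vehicle wells, and each value is the median of duplicate plates.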

Crizotinib + OSI-027 = compound: C[C@@H](Oc1cc(-c2cnn(C3CCNCC3)c2)cnc1N)c1c(Cl)ccc(F)c1Cl [Crizotinib] + COc1cccc2cc(-c3nc([C@H]4CC[C@H](C(=O)O)CC4)n4ncnc(N)c34)[nH]c12 [OSI-027] (partner 0.5 µM)
Outline: as §1

Crizotinib + Lapatinib = compound: C[C@@H](Oc1cc(-c2cnn(C3CCNCC3)c2)cnc1N)c1c(Cl)ccc(F)c1Cl [Crizotinib] + CS(=O)(=O)CCNCc1ccc(-c2ccc3ncnc(Nc4ccc(OCc5cccc(F)c5)c(Cl)c4)c3c2)o1 [Lapatinib] (partner 2 µM)
Outline: as §1

Olaparib + Vorinostat = compound: O=C(c1cc(Cc2n[nH]c(=O)c3ccccc23)ccc1F)N1CCN(C(=O)C2CC2)CC1 [Olaparib] + O=C(CCCCCCC(=O)Nc1ccccc1)NO [Vorinostat] (partner 1 µM)
Outline: as §1

Row | Cell Line | relative viability (Carfilzomib + Lapatinib; first compound 0.001 µM) | relative viability (Carfilzomib + Lapatinib; first compound 0.003162 µM) | relative viability (Carfilzomib + Lapatinib; first compound 0.01 µM) | relative viability (Carfilzomib + Lapatinib; first compound 0.03162 µM) | relative viability (Carfilzomib + Lapatinib; first compound 0.1 µM) | relative viability (Crizotinib + OSI-027; first compound 0.01 µM) | relative viability (Crizotinib + OSI-027; first compound 0.03162 µM) | relative viability (Crizotinib + OSI-027; first compound 0.1 µM) | relative viability (Crizotinib + OSI-027; first compound 0.3162 µM) | relative viability (Crizotinib + OSI-027; first compound 1 µM) | relative viability (Crizotinib + Lapatinib; first compound 0.01 µM) | relative viability (Crizotinib + Lapatinib; first compound 0.03162 µM) | relative viability (Crizotinib + Lapatinib; first compound 0.1 µM) | relative viability (Crizotinib + Lapatinib; first compound 0.3162 µM) | relative viability (Crizotinib + Lapatinib; first compound 1 µM) | relative viability (Olaparib + Vorinostat; first compound 0.08 µM) | relative viability (Olaparib + Vorinostat; first compound 0.253 µM) | relative viability (Olaparib + Vorinostat; first compound 2.53 µM) | relative viability (Olaparib + Vorinostat; first compound 8 µM)
1 | NCI-H358 | 0.377 | 0.53 | 0.404 | 0.177 | 0.139 | 0.628 | 0.897 | 0.673 | 0.664 | 0.772 | 0.392 | 0.447 | 0.445 | 0.382 | 0.483 | 0.697 | 0.613 | 0.634 | 0.551
2 | NCI-H460 | 0.954 | 1.18 | 0.955 | 0.0195 | 0.0166 | 0.536 | 0.931 | 0.479 | 0.6 | 0.708 | 0.977 | 1.24 | 0.983 | 0.94 | 0.982 | 0.778 | 0.58 | 0.378 | 0.0953
3 | NCI-H520 | 0.89 | 1.1 | 0.622 | 0.148 | 0.143 | 0.272 | 0.295 | 0.24 | 0.27 | 0.258 | 0.75 | 0.86 | 0.827 | 0.391 | 0.927 | 0.822 | 0.684 | 0.554 | 0.341
4 | NCI-H596 | 0.965 | 1.03 | 1.01 | 0.805 | 0.207 | 0.715 | 0.857 | 0.693 | 0.564 | 0.67 | 1.02 | 1.12 | 1.02 | 1.02 | 1.24 | 0.696 | 0.529 | 0.551 | 0.397
5 | NCI-H647 | 0.974 | 1.17 | 0.428 | 0.0287 | 0.0319 | 0.736 | 0.516 | 0.641 | 0.531 | 0.663 | – | 1.1 | 1.23 | 0.792 | 1.07 | 0.585 | 0.504 | 0.6 | 0.271
6 | NCI-H650 | 0.61 | 1.33 | 1.04 | 0.361 | 0.18 | 0.587 | 0.508 | 0.544 | 0.423 | 0.59 | 0.833 | 0.788 | 0.909 | 0.803 | 0.891 | 0.431 | 0.37 | 0.377 | 0.238
7 | NCI-H661 | 0.548 | 0.836 | 0.533 | 0.507 | 0.191 | 0.606 | 0.74 | 0.771 | 0.711 | 0.663 | 0.551 | 0.461 | 0.43 | 0.469 | 0.539 | 0.885 | 0.715 | 0.692 | 0.551
8 | NCI-H727 | 0.72 | 0.855 | 0.61 | 0.398 | 0.12 | – | 0.561 | 0.774 | – | 0.551 | 0.837 | 0.749 | 1.15 | 0.729 | 0.888 | 1.19 | 1.08 | 0.983 | 0.981
9 | NCI-H838 | 0.889 | 1.33 | 1.05 | 0.2 | 0.119 | 0.348 | 0.369 | 0.409 | 0.393 | 0.392 | 0.689 | 1.22 | – | 0.996 | 0.987 | 0.747 | 0.646 | 0.709 | 0.65
10 | NCI-H1355 | 0.872 | 1.08 | 1.08 | 0.941 | 0.168 | 0.358 | 0.44 | 0.394 | 0.369 | 0.361 | – | 1.04 | 1.07 | 0.863 | 0.986 | 0.683 | 0.645 | 0.638 | 0.641
11 | NCI-H1395 | 0.897 | 1.55 | 0.841 | 0.318 | 0.311 | 0.601 | 0.631 | 0.623 | 0.496 | 0.563 | 0.971 | 1.14 | 1 | 0.922 | 0.956 | 0.775 | 0.501 | 0.516 | 0.419
12 | NCI-H1437 | 0.78 | 0.931 | 0.832 | 0.431 | 0.139 | 0.758 | 0.901 | 0.824 | – | – | 0.768 | 0.839 | 0.816 | 0.711 | 0.928 | 0.945 | 0.746 | 0.695 | 0.639
13 | NCI-H1650 | – | 0.781 | 0.264 | 0.165 | 0.154 | 0.554 | 0.624 | 0.585 | 0.54 | 0.569 | 0.699 | 0.819 | 0.828 | 0.363 | 0.799 | 0.531 | 0.522 | 0.671 | 0.476
14 | NCI-H1651 | 0.696 | 0.742 | 0.16 | 0.113 | 0.101 | 0.546 | 0.852 | 0.727 | 0.73 | 0.8 | 0.642 | 0.782 | 0.722 | 0.893 | 0.892 | 0.493 | 0.515 | 0.493 | 0.365
15 | NCI-H1666 | 0.611 | 0.755 | 0.747 | 0.407 | 0.193 | 0.8 | 0.893 | 0.837 | 0.903 | 0.855 | 0.618 | 0.678 | 0.587 | 0.657 | 0.682 | 1.06 | 0.957 | 0.981 | 0.836
16 | NCI-H1734 | 1.03 | 1.11 | 1.02 | 0.317 | 0.203 | 0.592 | 0.606 | 0.473 | – | 0.555 | 1.03 | 1.05 | 1 | – | 1.04 | 0.868 | 0.74 | 0.715 | 0.572
17 | NCI-H1755 | 1.05 | 1.12 | 1.02 | 0.922 | 0.279 | 0.678 | 0.716 | 0.625 | 0.531 | 0.644 | 1 | 1.04 | 1.07 | 0.938 | 1.03 | 0.748 | 0.588 | 0.704 | 0.637
